Data reported in patent US8569336B2, “Compounds for the treatment of inflammatory disorders” (priority 2008, dated 2013).
Where two headings read alike, the source gives them in different places.

Legend:
[1] = target: T1, purified catalytic domain of recombinant human TACE (rhTACEc) (Homo sapiens, UniProt P78536, N452Q/S266A); test: TACE kinetic assay: cleavage of internally quenched peptide substrate TNF-FRET 2 (Ki); assay type: biochemical; conditions: TNF-FRET 2 substrate
T1 construct: 6xHis (C); made in house; host or cells: baculovirus/Hi5 insect cells
T1 sequence (P78536 215-477 S266A/N452Q): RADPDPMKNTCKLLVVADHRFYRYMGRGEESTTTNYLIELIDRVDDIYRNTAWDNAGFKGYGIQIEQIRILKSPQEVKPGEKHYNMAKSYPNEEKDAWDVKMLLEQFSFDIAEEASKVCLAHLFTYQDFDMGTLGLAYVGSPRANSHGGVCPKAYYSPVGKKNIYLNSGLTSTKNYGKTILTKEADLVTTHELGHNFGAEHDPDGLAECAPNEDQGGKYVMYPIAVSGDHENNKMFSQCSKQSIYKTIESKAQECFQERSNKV

[2] = system: TNF-α production from human whole blood; test: Inhibition of TNF-α production from human whole blood (hWBA), LPS stimulated, ELISA; assay type: cell-based; conditions: Homo sapiens, TNF-α by ELISA, read-out: hWBA (IC50)
[3] = LPS-stimulated human whole blood
[4] = 3.5 h, human whole blood diluted 1:1, LPS stimulated, 3.5 h
[5] = human whole blood diluted 1:1, LPS stimulated

Compound	Ki ([1]; read-out: Ki) [nM]	IC50 [2, 3] [nM]	IC50 [2, 4] [nM]	IC50 [2, 5] [nM]	Ki ([1]; Ki) [nM]
COc1ccc2c(c1F)C(=O)N(C[C@]1(C3=CC(c4ccccc4)N(C)O3)NC(=O)NC1=O)C2 (stereo partly shown) [Compound 1525]	3.2	≥ 100000			
COc1ccc2c(c1)C(=O)N(C[C@@]1(c3cc4cnc(NC(C)C)nc4o3)NC(=O)NC1=O)C2 [Compound 2298]	1.69			≥ 1000	
CCOC(=O)NCc1ccc2oc([C@]3(CN4Cc5ccc(OC)cc5C4=O)NC(=O)NC3=O)cc2c1 [Compound 2484]				1690	0.49
COc1ccc2c(c1)C(=O)N(C[C@@]1(c3ccc(-c4ccc(C(=NO)N5CCN(C)CC5)cc4)cc3)NC(=O)NC1=O)C2 [Compound 2456]	0.76			1010	
COc1ccc2c(c1F)C(=O)N(C[C@@]1(c3cc4nc(N5CCCN(C)CC5)ccc4o3)NC(=O)NC1=O)C2 [Compound 1713]	0.76	153			
COc1ccc2c(c1)C(=O)N(C[C@@]1(c3cc4ccc(C(=O)NCCN5CCCC5)cc4o3)NC(=O)NC1=O)C2 [Compound 2418]	0.76			265	
CCN1CCN(c2ccc3oc(C4(CN5CCc6ccsc6C5=O)NC(=O)NC4=O)cc3n2)CC1 (stereo not shown) [Compound 2496]	0.66			314	
COc1ccc2c(c1)C(=O)N(C[C@@]1(c3cc4nc(N(c5cn[nH]c5)C5CCNCC5)ccc4o3)NC(=O)NC1=O)C2 [Compound 1722]		93			0.39
COc1ccc2c(c1)C(=O)N(C[C@@]1(c3cc4c(N5CCNC(=O)C5)nccc4o3)NC(=O)NC1=O)C2 [Compound 2280]	1.1			340	
COc1ccc2c(c1)C(=O)N(C[C@@]1(c3cc4cc(-c5cnccc5O)ccc4o3)NC(=O)NC1=O)C2 [Compound 2199]	1.96		7360		
COc1ccc2c(c1)C(=O)N(C[C@@]1(c3cc4cc(N5CC(=O)NS5(=O)=O)ccc4o3)NC(=O)NC1=O)C2 [Compound 2230]	0.781		4410		
COc1ccc2c(c1F)C(=O)N(C[C@@]1(c3cc4c(C)nc(C)cc4o3)NC(=O)NC1=O)C2 [Compound 202]	0.568	553			
COc1ccc2c(c1)C(=O)N(C[C@@]1(c3cc4cc(-c5cccc(O)c5)ncc4o3)NC(=O)NC1=O)C2 [Compound 2242]	0.566		3390		
CCOC(=O)c1c(O)nc(C)c2cc([C@]3(CN4Cc5ccc(OC)cc5C4=O)NC(=O)NC3=O)oc12 [Compound 2434]	1.32			174	
COc1ccc2c(c1)C(=O)N(C[C@@]1(c3cc4cc(C(N)=O)ccc4o3)NC(=O)NC1=O)C2 [Compound 2407]				162	0.12
COc1ccc2c(c1)C(=O)N(C[C@@]1(c3cc4cc(CNC5CCCCC5)ccc4o3)NC(=O)NC1=O)C2 [Compound 2180]	0.443		617		

Compound	Ki ([1]; read-out: Ki) [nM]	IC50 [2, 3] [nM]	IC50 [2, 4] [nM]	IC50 [2, 5] [nM]	Ki ([1]; Ki) [nM]
COc1ccc2c(c1)C(=O)N(C[C@@]1(c3cc4cc(C(=O)NCCN(C)CCN)c(F)cc4o3)NC(=O)NC1=O)C2 [Compound 1279]	1		504		
COc1ccc2c(c1)C(=O)N(C[C@@]1(c3cc4cc5c(cc4o3)[C@@H](N)CC5)NC(=O)NC1=O)C2 [Compound 2508]	0.52			1020	
COc1ccc2c(c1)C(=O)N(C[C@@]1(c3cc4c(o3)CCN(CC(N)=O)C4)NC(=O)NC1=O)C2 [Compound 2268]			252		0.702
COc1ccc2c(c1)C(=O)N(C[C@@]1(c3cc4cc(C)nc(C)c4o3)NC(=O)NC1=O)C2 [Compound 204]	0.667	4090			
COc1ccc2c(c1)C(=O)N(C[C@@]1(c3cc4cc(S(=O)(=O)NCCN(C)C)ccc4o3)NC(=O)NC1=O)C2 [Compound 2482]	0.67			304	
COc1ccc2c(c1)C(=O)N(C[C@@]1(c3cc4cc5c(cc4o3)[C@@H](NC(=O)OC(C)(C)C)CC5)NC(=O)NC1=O)C2 [Compound 2507]	1.43			4160	
CCN1C[C@@H]2C[C@H]1CN2c1ccc2oc([C@]3(CN4Cc5ccc(OC)c(F)c5C4=O)NC(=O)NC3=O)cc2n1 [Compound 1292]	0.86		177		
COc1ccc2c(c1)C(=O)N(C[C@@]1(c3cc4c(C(F)(F)F)nccc4o3)NC(=O)NC1=O)C2 [Compound 2270]	0.441		1070		
COc1ccc2c(c1)C(=O)N(C[C@@]1(c3cc4cc(CNCCN)ccc4o3)NC(=O)NC1=O)C2 [Compound 2179]	0.713		376		
COc1ccc2c(c1F)C(=O)N(C[C@@]1(c3cc4nc(N5CCNCC5)ccc4o3)NC(=O)NC1=O)C2 [Compound 1725]	0.6	97			
COc1ccc2c(c1)C(=O)N(C[C@@]1(c3cc4ncc(C(N)=O)cc4o3)NC(=O)NC1=O)C2 [Compound 1929]		173			0.37
COc1ccc2c(c1F)C(=O)N(C[C@@]1(c3cc4ccc(NC(C)=O)nc4o3)NC(=O)NC1=O)C2 [Compound 505]	0.558	252			
COc1ccc2c(c1)C(=O)N(C[C@@]1(c3cc4cc(C(=O)N5CCN(C)CC5)c(C)cc4o3)NC(=O)NC1=O)C2 [Compound 2427]	1.42			560	
O=C1NC(=O)C(CN2Cc3ccccc3C2=O)(c2ccc(Br)cc2)N1 (stereo not shown) [Compound 1296]	7		> 10000		
COc1ccc2c(c1)C(=O)N(C[C@@]1(c3cc4c(o3)CCN(CC(N)=O)C4)NC(=O)NC1=O)C2 [Compound 2483]				252	0.7
COc1ccc2c(c1)C(=O)N(C[C@@]1(c3cc4c(s3)CCN(C)C4)NC(=O)NC1=O)C2 [Compound 2265]	8.77		1440		

Now from value to molecule, other results behind:

Ki ([1]; read-out: Ki) [nM]	IC50 [2, 3] [nM]	IC50 [2, 4] [nM]	IC50 [2, 5] [nM]	Compound	Ki ([1]; Ki) [nM]
0.342		375		COc1ccc2c(c1)C(=O)N(C[C@@]1(c3cc4nc(-c5cc[nH]n5)ccc4o3)NC(=O)NC1=O)C2 [Compound 2103]	
0.491		3310		COc1ccc2c(c1)C(=O)N(C[C@@]1(c3cc4cc(Br)ccc4o3)NC(=O)NC1=O)C2 [Compound 2192]	
0.49			132	COc1ccc2c(c1)C(=O)N(C[C@@]1(c3cc4ccc(C(N)=O)cc4o3)NC(=O)NC1=O)C2 [Compound 2408]	
1.23		242		COc1ccc2c(c1)C(=O)N(CC1(c3cc4cc(-c5cc(O)[nH]n5)ccc4o3)NC(=O)NC1=O)C2 (stereo not shown) [Compound 2223]	
0.194		267		COc1ccc2c(c1)C(=O)N(C[C@@]1(c3cc4nc(Nc5nccc(O)n5)ccc4o3)NC(=O)NC1=O)C2 [Compound 2144]	
0.57	459			COc1ccc2c(c1)C(=O)N(C[C@@]1(c3cc4nc(-c5cc[nH]c5)ccc4o3)NC(=O)NC1=O)C2 [Compound 1900]	
0.328			2110	COc1ccc2c(c1)C(=O)N(C[C@@]1(c3cc4cnc(OC)cc4o3)NC(=O)NC1=O)C2 [Compound 2308]	
0.65	125			COc1ccc2c(c1)C(=O)N(C[C@@]1(c3cc4nc(N5C[C@@H](O)CC5=O)ccc4o3)NC(=O)NC1=O)C2 [Compound 1531]	
0.51			452	COc1ccc2c(c1)C(=O)N(C[C@@]1(c3cc4ccc(C(=O)NC[C@H](C)O)cc4o3)NC(=O)NC1=O)C2 [Compound 2415]	
0.75			115	COc1ccc2c(c1)C(=O)N(C[C@@]1(c3cc4cc(C(=O)NCCN(C)C)ccc4o3)NC(=O)NC1=O)C2 [Compound 2428]	
0.731			712	COc1ccc2c(c1)C(=O)N(C[C@@]1(c3cc4cc(C(C)=O)cnc4o3)NC(=O)NC1=O)C2 [Compound 2433]	
0.5	1190			COc1ccc2c(c1)C(=O)N(C[C@@]1(c3cc4nc(-c5c(C)noc5C)ccc4o3)NC(=O)NC1=O)C2 [Compound 1520]	
0.556			321	COc1ccc2c(c1)C(=O)N(C[C@@]1(c3cc4ncc(C(=O)NC5CC5)cc4o3)NC(=O)NC1=O)C2 [Compound 2460]	
0.7	195			COc1ccc2c(c1)C(=O)N(C[C@@]1(c3cc4nc(C(=O)O)ccc4o3)NC(=O)NC1=O)C2 [Compound 1514]	
0.43	211			COc1ccc2c(c1)C(=O)N(C[C@@]1(c3cc4nc(Nc5cn[nH]c5)ccc4o3)NC(=O)NC1=O)C2 [Compound 1729]	
0.427		247		COc1ccc2c(c1)C(=O)N(C[C@@]1(c3cc4nc(Nc5ccncc5)ccc4o3)NC(=O)NC1=O)C2 [Compound 2136]	
0.49			1230	COc1ccc2c(c1)C(=O)N(C[C@@]1(c3cc4cc(CNC(=O)N(C)C)ccc4o3)NC(=O)NC1=O)C2 [Compound 2486]	
0.35			600	COc1ccc2c(c1)C(=O)N(C[C@@]1(c3cc4cc(S(N)(=O)=O)ccc4o3)NC(=O)NC1=O)C2 [Compound 2478]	
0.4	142			COc1ccc2c(c1)C(=O)N(C[C@@]1(c3cc4nc(-c5cnc(N)nc5)ccc4o3)NC(=O)NC1=O)C2 [Compound 1519]	
0.3			591	COc1ccc2c(c1)C(=O)N(C[C@@]1(c3cc4ccc(C(=O)O)cc4o3)NC(=O)NC1=O)C2 [Compound 2410]	
0.77	606			CCNc1nnc(-c2ccc3oc([C@]4(CN5Cc6ccc(OC)cc6C5=O)NC(=O)NC4=O)cc3n2)o1 [Compound 1906]	
0.41			987	COc1ccc2c(c1)C(=O)N(C[C@@]1(c3cc4cc(C=O)ccc4o3)NC(=O)NC1=O)C2 [Compound 2451]	
0.312			630	COc1ccc2c(c1)C(=O)N(C[C@@]1(c3cc4cncc(Br)c4o3)NC(=O)NC1=O)C2 [Compound 2303]	
0.48	248			COC(=O)c1ccc2oc([C@]3(CN4Cc5ccc(OC)c(F)c5C4=O)NC(=O)NC3=O)cc2n1 [Compound 1903]	
